Measured values taken from publication PMC11944514, “Dengue Virus Inhibitors as Potential Broad-Spectrum Flavivirus Inhibitors” (Pharmaceuticals, 2025).
Like-named read-outs stand apart in the source and are kept apart here.

Legend:
Vero E6 [1] = tested on: Vero E6; design: method as in PMID 20837762; details: reference inhibitor compound; cited from earlier work
DENV2 [2] = tested on: DENV2; design: method as in PMID 20837762; details: reference inhibitor compound; cited from earlier work
TBEV = details: cited from earlier work
Vero E6 [3] = details: cited from earlier work
KUNV = details: cited from earlier work
ZIKV [4] = tested on: ZIKV; design: method as in PMID 29642580; details: reference inhibitor compound; cited from earlier work
[5] = xCELLigence real-time cytotoxicity assay (RTCA), CC50; assay type: cell-based; details: African green monkey, Vero E6 cells, 24 h of exposure
Description: As compounds C1, C2, and C3 were relatively toxic (Figure 2A), we determined the selectivity index (SI) of the identified potential broad-spectrum flavivirus inhibitors. As the WST-1 assay tends to underestimate the toxic effect and is unable to detect cytostatic effects, the CC50 of the perspective compounds was measured using a more sensitive xCELLigence real-time cytotoxicity assay (RTCA). […] The full xCELLigence RTCA data are provided in the Supporting Information section (Figures S2 and S3). Thereafter, for each compound, the SI was calculated as a ratio of the CC50 of a compound against its EC50 [36].
Vero E6 cells were seeded on a 16-well E-plate (ACEA Biosciences, Inc., San Diego, CA, USA ) at a density of 5 × 10^3 cells/well and allowed to adhere overnight. On the next day, the studied compounds were added at the final concentrations ranging from 0.078 μM to 5 μM with a two-fold dilution step for compounds C1, C2, and C3, and at the final concentrations ranging from 1.56 μM to 50 μM with a two-fold dilution step for compounds C5 and C6; 0.01% DMSO was used as a solvent control. The cells were incubated for 5 days, and the signals between the electrodes (impedance) were recorded using an RTCA xCELLigence machine (Agilent Technologies, Inc., Santa Clara, CA, USA). […] The CC50 values were calculated using GraphPad Prism 10.0 for Windows, GraphPad Software, v. 10.4.1, Boston, MA, USA, www.graphpad.com (accessed on 16 February 2025).

DENV2-Nanoluc replicon = assay type: cell-based
ZIKV-Nanoluc = assay: microbe, parasite or virus in culture; assay type: cell-based; details: for EC50: Zika virus, Vero C1008, read-out: ZIKV EC50, μM
ZIKV-Nanoluc replicon = assay type: cell-based
ZIKV [6] = tested on: ZIKV; design: method as in PMID 32452420; details: Vero E6 cells; read-out: EC50, inhibition of ZIKV replication; cited from earlier work
TBEV-Nanoluc = assay: microbe, parasite or virus in culture; assay type: cell-based
KUNV-Nanoluc replicon = assay type: cell-based
WNV, DENV, and YFV = details: cited from earlier work
TBEV-Nanoluc replicon = assay type: cell-based
KUNV-Nanoluc = assay: organism not typed; assay type: cell-based; details: for EC50: Vero C1008, read-out: KUNV EC50, μM
DENV2-Nanoluc = assay: microbe, parasite or virus in culture; assay type: cell-based; details: for EC50: Dengue virus
[7] = tested on: New Guinea C strain of DENV2; details: human Huh7 cells infected for 48 h, Renilla luciferase assay; read-out: EC50 against the New Guinea C strain of DENV2; cited from earlier work
U2OS cells [8] = assay: WST-1 cell viability assay, U2OS; assay type: cell-based, human; details: 48 h of exposure
Description: (§1) Vero E6 or U2OS cells were seeded on the 96-well plate at a density of 1 × 10^4 cells/well and were allowed to adhere overnight. Next day, the cells were treated with the studied compounds at concentrations ranging from 1 to 100 μM with a ten-fold dilution step. As a solvent control, 0.01% DMSO (Sigma, St. Louis, MO, USA) was used. After 48 h of exposure, 10 μL of WST-1 (10 mg/mL) cell proliferation reagent (Roche, Cat. No. 11644807001) was added to each well, and plates were incubated at 37 °C, 5% CO2 for 2 h. The optical density was then measured at 450 nm using an Epoch Microplate Spectrophotometer (BioTek Instruments, Inc., Winooski, VT, USA). Four independent experiments were carried out in triplicates.

U2OS cells [9] = tested on: U2OS cells; design: method as in PMID 31609477; details: previously reported; read-out: 50% cytotoxic concentration (CC50) against U2OS cells; cited from earlier work
DENV-2-NGC = tested on: DENV-2-NGC; design: method as in PMID 17360676; details: Vero E6 cells; read-out: EC50, inhibition of DENV-2-NGC activity; cited from earlier work
DENV2 [10] = tested on: DENV2; design: method as in PMID 25878766; details: BHK-21 cells; read-out: EC50, inhibition of DENV2 infection; cited from earlier work
Vero E6 cells = assay: WST-1 cell viability assay, Vero E6; assay type: cell-based, African green monkey; details: Vero E6, 48 h of exposure
Description: The cytotoxic effect of all studied compounds was assessed using the WST-1 assay after 48 h of exposure. […] This observation can be explained by the fact that the compound C8 is resazurin, phenoxazine dye, also known as Alamar Blue, which is subject to irreversible metabolic reduction to the resorufin by live mammalian cells. Thus, the cytotoxic effect of this compound cannot be assessed by the WST-1 assay correctly. Therefore, the C8 cytotoxicity was further assessed using the resazurin cell viability assay. This assay allowed us to avoid the interference between the tested compound and dye and obtain more reliable results for colored compounds.
as §1

[11] = Tick-borne encephalitis virus, Vero C1008, read-out: TBEV EC50, μM
[12] = DENV2, Vero C1008, read-out: DENV2 EC50, μM

SMILES | CC50 at 24 h [5] [µM] | antiviral effect against DENV2-Nanoluc replicon (DENV2-Nanoluc replicon) | antiviral effect against ZIKV-Nanoluc (initial screening) (ZIKV-Nanoluc) | concentration at which a statistically significant antiviral effect appeared (ZIKV-Nanoluc) (ZIKV-Nanoluc) [µM] | EC50 (ZIKV-Nanoluc) [µM] | antiviral effect against ZIKV-Nanoluc replicon (ZIKV-Nanoluc replicon) | antiviral effect against TBEV-Nanoluc (initial screening) (TBEV-Nanoluc) | EC50 (TBEV-Nanoluc; [11]) [µM] | antiviral effect against KUNV-Nanoluc replicon (KUNV-Nanoluc replicon) | antiviral effect against TBEV-Nanoluc replicon (TBEV-Nanoluc replicon) | antiviral effect against KUNV-Nanoluc (initial screening) (KUNV-Nanoluc) | EC50 (KUNV-Nanoluc) [µM] | antiviral effect against DENV2-Nanoluc (initial screening) (DENV2-Nanoluc) | EC50 (DENV2-Nanoluc; [12]) [µM] | further results
COc1cccc2c1C(=O)c1c(O)c3c(c(O)c1C2=O)C[C@@](O)(C(=O)CO)C[C@@H]3O[C@H]1C[C@H](N)[C@H](O)[C@H](C)O1 [Doxorubicin] |  |  |  |  |  |  |  |  |  |  |  |  |  |  | CC50 (Vero E6 [1]): 24 µM; EC50 (DENV2 [2]): 1.2 µM
CCOC(=O)c1c(CSc2ccccc2)n(C)c2cc(Br)c(O)c(CN(C)C)c12 [Arbidol] |  |  |  |  |  |  |  |  |  |  |  |  |  |  | EC50 (TBEV): 18.7 µM; CC50 (Vero E6 [3]): 89.7 µM; EC50 (KUNV): 18.8 µM; EC50 (ZIKV [4]): 12.1 µM
O[C@H]1[C@H]2c3cc4c(cc3CN3CCC(=C[C@@H]1O)[C@H]23)OCO4 [Compound C1, (1S,17S,18S,19S)-5,7-dioxa-12-azapentacyclo[10.6.1.0^2,^10.0^4,^8.0^15,^19]nonadeca-2(10),3,8,15-tetraene-17,18-diol] | 1.3 | later addition (at 8 h post-transfection) of C1 had a lower antiviral effect compared to earlier | completely inhibited the ZIKV-Nanoluc replication at the maximum tested concentration | 0.2 | 0.13 | later addition (at 8 h post-transfection) of C1 had a lower antiviral effect compared to earlier | the ten-fold increase in concentration did not lead to any significant improvement of the antiviral effect | 0.09 | later addition (at 8 h post-transfection) of C1 had a lower antiviral effect compared to earlier | later addition (at 8 h post-transfection) of C1 had a lower antiviral effect compared to earlier | apparent dose-dependent antiviral effect | 0.17 | apparent dose-dependent antiviral effects | 0.09 | EC50 (ZIKV [6]): 0.39 µM; concentration at which the antiviral effect appeared (TBEV-Nanoluc) (TBEV-Nanoluc): 0.2 µM; reduction of viral titers of WNV, DENV, and YFV (WNV, DENV, and YFV): 10^2- to 10^4 fold
CC(C)(C)Oc1cccc2nc(N)nc(N)c12 [Compound C2, 5-(tert-butoxy)quinazoline-2,4-diamine] | 0.31 |  | completely inhibited the ZIKV-Nanoluc replication at the maximum tested concentration | 0.2 | 0.48 |  | clear dose-dependent antiviral effect |  |  |  | decreased the KUNV-Nanoluc activity only at the maximum tested concentrations | 0.26 | apparent dose-dependent antiviral effects | ~0.13 | EC50 [7]: 0.0028 µM; EC50 (DENV2-Nanoluc; DENV2, Vero C1008, read-out: EC50 against DENV2): ~0.13 µM
COc1c(C)c2c(c(O)c1CC=C(C)CCC(=O)O)C(=O)OC2 [Compound C3, 6-(4-hydroxy-6-methoxy-7-methyl-3-oxo-1,3-dihydro-2-benzofuran-5-yl)-4-methylhex-4-enoic acid] | > 5 | no effect at the maximum non-toxic concentration | only demonstrated a statistically significant antiviral effect at the maximum tested concentration |  | 0.53 | no effect at the maximum non-toxic concentration | clear dose-dependent antiviral effect | 0.61 | no effect at the maximum non-toxic concentration | no effect at the maximum non-toxic concentration | apparent dose-dependent antiviral effect | 0.21 | apparent dose-dependent antiviral effects | 0.12 | cytotoxic effect (WST-1 assay) (U2OS cells [8]): extremely toxic for the U2OS cell line even at the lowest micromolar concentration; CC50 (U2OS cells [9]): 1.66 µM; EC50 (DENV-2-NGC): 5.7 µM
CN1C(=O)C2(CC(=O)Nc3c2cnn3Cc2ccc(Cl)cc2)c2cc(Cl)ccc21 (stereo not shown) [Compound C6, 5-chloro-1′-[(4-chlorophenyl)methyl]-1-methyl-1,1′,2,5′,6′,7′-hexahydrospiro[indole-3,4′-pyrazolo[3,4-b]pyridine]-2,6′-dione] | > 50 | most active against all the studied viral replicons | partially inhibited the virus activity at this concentration |  | 23.9 | most active against all the studied viral replicons | clear dose-dependent antiviral effect |  | most active against all the studied viral replicons | most active against all the studied viral replicons | decreased the KUNV-Nanoluc activity only at the maximum tested concentrations | 20.6 | apparent dose-dependent antiviral effects |  | EC50 (DENV2 [10]): 0.006 µM; EC50 (TBEV-Nanoluc; read-out: TBEV EC50): 14 µM; cytotoxic effect (WST-1 assay) (Vero E6 cells): no cytotoxic effect at the maximal tested concentration
